In paper PMC7576618 (British Journal of Clinical Pharmacology, 2020):
Values joined by “and” are separate entries in the source; they are usually repeats but may differ in a detail not shown here. Equal entries are not always repeated. “Also recorded” adds a separate entry of the source.

Tests used:
[1] = MAD study: urinary excretion; assay type: in vivo, human; conditions: urine, MAD Day 14; for CL renal: both, human, oral, CLr, mean (CV[%])
mGlu3 receptor = conditions: read-out: in vitro EC50 for mGlu3 receptor; authors' assay system; cited from earlier work
[2] = test system: MK‐801‐induced social recognition deficits in rats; assay: MK-801-induced social recognition deficits; conditions: MGS0008 1, 3, 10 mg kg^-1 p.o., MK-801 0.2 mg kg^-1 i.p.
[3] = SAD study: urinary excretion; assay type: in vivo, human; conditions: for CL renal: both, human, oral
[4] = SAD study Part B: CSF pharmacokinetics of MGS0008 after 10 mg TS-134; assay type: in vivo, human; conditions: 10 mg TS‐134 under fed condition
[5] = SAD study: plasma pharmacokinetics after single oral TS-134; assay type: in vivo, human; conditions: for AUC / Cmax / half-life / Tmax: both, human, plasma; for AUC: AUC0‐inf; for AUC / Cmax: mean (CV[%]); for Tmax: median
[6] = test system: spontaneous locomotor activity in rats; assay: Spontaneous locomotor activity; conditions: doses similar to those which block psychostimulants‐induced hyperlocomotion
[7] = test system: methamphetamine‐induced locomotor hyperactivity in rats; assay: Methamphetamine-induced locomotor hyperactivity; conditions: MGS0008 1, 3, 10 mg kg^-1 p.o., methamphetamine 1 mg kg^-1 s.c.
[8] = MAD study: plasma pharmacokinetics after multiple oral dose titration of TS-134; assay type: in vivo, human; conditions: for AUC / half-life: both, human, plasma, oral, MAD Day 14, fed; for AUC: AUC0‐tau, mean (CV[%]); for half-life: t1/2, mean (CV[%])
[9] = test system: memantine‐increased 2‐deoxy‐D‐glucose uptake in the prefrontal cortex; assay: Memantine-induced 2-deoxy-D-glucose uptake in the prefrontal cortex; conditions: mice; MGS0008 0.3, 1, 3 mg kg^-1 s.c.; memantine 30 mg kg^-1 s.c.
[10] = rats; cited from earlier work
[11] = test system: phencyclidine‐induced locomotor hyperactivity in rats; assay: Phencyclidine-induced locomotor hyperactivity; conditions: MGS0008 1, 3, 10 mg kg^-1 p.o., phencyclidine 3 mg kg^-1 s.c.
[12] = oral, 5 mg, SAD Parts A and C, 5 mg fasted (n = 6)
[13] = oral, 10 mg, SAD Parts A and C, 10 mg fasted (n = 4)
[14] = oral, 10 mg, SAD Parts A and C, 10 mg fed (n = 3)
[15] = oral, 20 mg, SAD Parts A and C, 20 mg fasted (n = 3)
[16] = oral, 20 mg, SAD Parts A and C, 20 mg fed (n = 3)

## N[C@]1(C(=O)O)[C@H]2[C@@H](C[C@@H]1F)[C@@H]2C(=O)O [MGS0008, (1S,2S,3S,5R,6S)‐2‐amino‐3‐fluorobicyclo[3.1.0]hexane‐2,6‐dicarboxylic acid]
[1]; 5 mg, 5 mg (n = 8)
  CL renal: 85.2 mL/min
[1]; 10 mg, 10 mg (n = 8)
  CL renal: 88.2 mL/min
[1]; 20 mg, 20 mg (n = 8)
  CL renal: 103 mL/min
[1]; 40 mg, 40 mg (n = 8)
  CL renal: 93.3 mL/min
[1]; 60 mg, 60 mg (n = 8)
  CL renal: 78.7 mL/min
[1]; 5 mg (n = 8)
  Fe (0–24), mean (CV[%]): 48.03 (36.10) %
[1]; 10 mg (n = 8)
  Fe (0–24), mean (CV[%]): 51.79 (24.95) %
[1]; 20 mg (n = 8)
  Fe (0–24), mean (CV[%]): 50.42 (20.58) %
[1]; 40 mg (n = 8)
  Fe (0–24), mean (CV[%]): 48.06 (13.48) %
[1]; 60 mg (n = 8)
  Fe (0–24), mean (CV[%]): 50.48 (24.14) %
[1]; 80 mg Cohort 5 (n = 7)
  Fe (0–24), mean (CV[%]): 43.69 (36.76) %
[1]; 80 mg Cohort 6 (n = 6)
  Fe (0–24), mean (CV[%]): 37.21 (35.47) %
mGlu3 receptor
  EC50: 45.4 nM
[2]
  effect on MK‐801‐induced impaired social memory: significantly reversed
[3]; SAD and MAD studies, dose range 5–80 mg
  urinary excretion rate, % of the administered doses: 29.38 to 69.01% and 29.38–69.01%
[3]; urine and plasma, renal clearance, range, SAD and MAD studies
  CL renal: 70.6 to 103 mL/min
[3]; urine, 5 mg, CLr, mean (CV[%]), SAD Parts A and C, 5 mg fasted (n = 6)
  CL renal: 101 mL/min
[3]; urine, 10 mg, CLr, mean (CV[%]), SAD Parts A and C, 10 mg fasted (n = 4)
  CL renal: 89.8 mL/min
[3]; urine, 10 mg, CLr, mean (CV[%]), SAD Parts A and C, 10 mg fed (n = 3)
  CL renal: 103 mL/min
[3]; urine, 20 mg, CLr, mean (CV[%]), SAD Parts A and C, 20 mg fasted (n = 3)
  CL renal: 73.9 mL/min
[3]; urine, 20 mg, CLr, mean (CV[%]), SAD Parts A and C, 20 mg fed (n = 3)
  CL renal: 70.6 mL/min
[3]; urine, SAD Part B, 10 mg fed (n = 7)
  Fe (0–48), mean (CV[%]): 55.77 (15.99) %
[3]; urine, SAD Parts A and C, 5 mg fasted (n = 6)
  Fe (0–48), mean (CV[%]): 69.01 (10.23) %
[3]; urine, SAD Parts A and C, 10 mg fasted (n = 4)
  Fe (0–48), mean (CV[%]): 60.61 (36.10) %
[3]; urine, SAD Parts A and C, 10 mg fed (n = 3)
  Fe (0–48), mean (CV[%]): 49.65 (38.35) %
[3]; urine, SAD Parts A and C, 20 mg fasted (n = 3)
  Fe (0–48), mean (CV[%]): 38.55 (65.52) %
[3]; urine, SAD Parts A and C, 20 mg fed (n = 3)
  Fe (0–48), mean (CV[%]): 29.38 (52.53) %
[4]
  mean CSF Cmax (molar): 6.12 nM
[5]; SAD, 10 and 20 mg TS‐134
  reduction of plasma AUC in the fed group (food effect): ≤ 25%
  reduction of plasma Cmax in the fed group (food effect): up to 57%
[5]; [12]
  AUC: 278 ng·h/mL
  Cmax: 25.9 ng/mL
  Tmax: 2 h
[5]; oral, 5 mg, t1/2, mean (CV[%]), SAD Parts A and C, 5 mg fasted (n = 6)
  half-life: 7.75 h
[5]; [13]
  AUC: 535 ng·h/mL
  Cmax: 60.6 ng/mL
  Tmax: 2 h
[5]; [14]
  AUC: 390 ng·h/mL
  Cmax: 28.1 ng/mL
  Tmax: 4 h
[5]; oral, 10 mg, t1/2, mean (CV[%]), SAD Part B, 10 mg fed (n = 7)
  half-life: 8.49 h
[5]; oral, 10 mg, t1/2, mean (CV[%]), SAD Parts A and C, 10 mg fasted (n = 4)
  half-life: 8.41 h
[5]; oral, 10 mg, t1/2, mean (CV[%]), SAD Parts A and C, 10 mg fed (n = 3)
  half-life: 8.7 h
[5]; [15]
  AUC: 840 ng·h/mL
  Cmax: 89.4 ng/mL
  Tmax: 3 h
[5]; [16]
  AUC: 677 ng·h/mL
  Cmax: 60.2 ng/mL
  Tmax: 2 h
[5]; oral, 20 mg, t1/2, mean (CV[%]), SAD Parts A and C, 20 mg fasted (n = 3)
  half-life: 6.96 h
[5]; oral, 20 mg, t1/2, mean (CV[%]), SAD Parts A and C, 20 mg fed (n = 3)
  half-life: 6.91 h
[5]; po, terminal half‐life (t1/2) in plasma, single and multiple oral administration of TS‐134 (SAD and MAD studies)
  half-life: ~10 h
[5]; molar ratio, SAD and MAD studies
  plasma Cmax of MGS0008 relative to that of MGS0274: approximately 6 fold
[5]; molar ratio, all treatment groups with or without food
  plasma AUC of MGS0008 relative to that of MGS0274: approximately 30 fold
[6]
  effect on spontaneous locomotor activity: significantly reduced
[7]
  effect on methamphetamine‐induced locomotor hyperactivity: significantly attenuated
[8]; MAD, 5–80 mg
  dose proportionality of steady‐state plasma Cmax and AUC: increased dose proportionally; also recorded: dose proportional increases
[8]; after initiating multiple doses of target dose levels, data not shown
  time for plasma trough concentrations to reach steady state: ≤ 2 days
[8]; 5 mg, 5 mg (n = 8)
  AUC: 233 ng·h/mL
  half-life: 9.68 h
[8]; 10 mg, 10 mg (n = 8)
  AUC: 475 ng·h/mL
  half-life: 10.9 h
[8]; 20 mg, 20 mg (n = 8)
  AUC: 817 ng·h/mL
  half-life: 10.4 h
[8]; 40 mg, 40 mg (n = 8)
  AUC: 1640 ng·h/mL
  half-life: 10.3 h
[8]; 60 mg, 60 mg (n = 8)
  AUC: 3100 ng·h/mL
  half-life: 9.43 h
[9]
  effect on memantine‐increased 2‐deoxy‐D‐glucose uptake (2‐DG6P) in the prefrontal cortex: attenuated
[10]
  CSF‐to‐plasma AUC ratio: 2.8%
  presence in the cerebrospinal fluid (CSF) after oral administration of MGS0008: detected
[11]
  effect on phencyclidine‐induced locomotor hyperactivity: significantly attenuated
